Data on one molecule can be found in patent US20240245783A1, “METALLO-BETA-LACTAMASE INHIBITOR” (priority 2021, published 2024).

Each structure is given as a SMILES string.

The subject of the assay is IMP-1-expressing Klebsiella pneumoniae. The assay is described as follows: Survival of Leukopenia mice infected with IMP-1-expressing Klebsiella pneumoniae (Test Example 6). The format is in vivo. The note with it: meropenem 10 mg/kg alone subcutaneously; 48 hours; Leukopenia ddY mice. Here is the method: DTPA-conjugated cefalexin (compound 1)'s effect of enhancing the drug susceptibility of pathogenic bacteria was examined by an in vivo experiment using bacteria-infected mice. To prepare a compromised Leukopenia mouse model, 0.1 mL of cyclophosphamide monohydrate (Sigma-Aldrich) prepared with PBS was administered intraperitoneally to 4-week-old male ddY mice (Japan SLC) at 250 mg/kg at 4 days before infection. IMP-1-expressing Klebsiella pneumoniae used herein was a clinical isolate provided by Kumamoto University Hospital. The bacteria were cultured overnight with shaking in LB medium at 37° C., then diluted 50-fold with LB medium, and further cultured with shaking, so that the turbidity (600 nm) was 1.5 or higher. The bacteria were centrifuged to remove the medium, washed twice with PBS, and then diluted with PBS to 5×10^5 CFU/mL. In the mouse infection experiment, each Leukopenia mouse was infected with 0.1 mL (5×10^4 CFU) of IMP-1-expressing Klebsiella pneumoniae by intraperitoneal injection. Thirty minutes after infection, 0.1 mL of a mixed solution containing meropenem (Wako Pure Chemical Industries, Ltd.) and compound 1 (DTPA-CEF) was subcutaneously administered to each mouse of a treatment mouse group at 10 mg/kg and 50 mg/kg, respectively. […] Forty-eight hours after infection, mice were assessed for viability. […]

Regarding `C[C@@H](O)[C@H]1C(=O)N2C(C(=O)O)=C(S[C@@H]3CN[C@H](C(=O)N(C)C)C3)[C@H](C)[C@H]12` [meropenem, reference compound], the survival entry is reported as “All mice of the meropenem administration group died”.
